Assay results published in US6919342B2, “Triazole compounds suitable for treating disorders that respond to modulation of the dopamine D3 receptor” (Abbott GmbH & Co. KG, priority 2003, dated 2005).

Legend:
[1] = biological target: T1, human dopamine D2L receptors (long isoform) (Homo sapiens, UniProt P14416); experiment: Dopamine D2L receptor binding, displacement of [125I] iodospiperone; details: membranes of HEK-293 cells, 0.01 nM [125I] iodospiperone, 25° C., 60 minutes; read-out: Ki D2
T1 construct: expressed in transfected cells; host or cells: HEK-293
Description: (§1) The substance to be tested was either dissolved in methanol/Chremophor® (BASF-AG) or in dimethyl sulfoxide and then diluted with water to the desired concentration.
(§2) Each assay mixture was run in triplicate.
The incubation buffer contained 50 mM tris, 120 mM NaCl, 5 mM KCl, 2 mM CaCl2, 2 mM MgCl2 and 0.1% bovine serum albumin. The buffer was adjusted to pH 7.4 with HCl.
(§3) After having been incubated at 25° C. for 60 minutes, the assay mixtures were filtered through a Wathman GF/B glass fiber filter under vacuum using a cell collecting device. The filters were transferred to scintillation viols using a filter transfer system. After 4 ml of Ultima Gold® (Packard) have been added, the samples were shaken for one hour and the radioactivity was then counted in a Beta-Counter (Packard, Tricarb 2000 or 2200CA). The cpm values were converted into dpm using a standard quench series and the program belonging to the instrument.
(§4) The inhibition curves were analyzed by means of iterative nonlinear regression analysis using the Statistical Analysis System (SAS) which is similar to the “LIGAND” program described by Munson and Rodbard.

[2] = biological target: T2, human dopamine D3 receptors (Homo sapiens, UniProt P35462); experiment: Dopamine D3 receptor binding, displacement of [125I]-iodosulpride; details: for Ki: membranes of HEK-293 cells, 0.1 nM [125I]-iodosulpride, 25° C., 60 minutes; for Selectivity [Ki(D2)/Ki(D3)]: ratio of Ki D2 to Ki D3
T2 construct: expressed in transfected cells; host or cells: HEK-293
Description: as §1, §2
The incubation buffer contained 50 mM tris, 120 mM NaCl, 5 mM KCl, 2 mM CaCl2, 2 mM MgCl2 and 0.1% bovine serum albumin, 10 μM quinolone and 0.1% ascorbic acid (prepared fresh daily). The buffer was adjusted to pH 7.4 with HCl.
as §3, §4

T2 sequence (P35462 whole entry): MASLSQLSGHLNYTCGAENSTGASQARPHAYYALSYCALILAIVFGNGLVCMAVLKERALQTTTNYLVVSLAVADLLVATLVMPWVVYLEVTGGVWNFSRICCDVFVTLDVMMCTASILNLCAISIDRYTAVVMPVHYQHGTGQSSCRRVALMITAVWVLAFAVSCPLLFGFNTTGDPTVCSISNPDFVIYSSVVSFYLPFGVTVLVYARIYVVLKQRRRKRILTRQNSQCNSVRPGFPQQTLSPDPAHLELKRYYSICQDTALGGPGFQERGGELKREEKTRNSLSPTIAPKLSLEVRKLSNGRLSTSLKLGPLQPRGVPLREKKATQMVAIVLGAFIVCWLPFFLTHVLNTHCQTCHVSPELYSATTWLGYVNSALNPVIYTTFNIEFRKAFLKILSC
T1 sequence (P14416 whole entry, canonical isoform): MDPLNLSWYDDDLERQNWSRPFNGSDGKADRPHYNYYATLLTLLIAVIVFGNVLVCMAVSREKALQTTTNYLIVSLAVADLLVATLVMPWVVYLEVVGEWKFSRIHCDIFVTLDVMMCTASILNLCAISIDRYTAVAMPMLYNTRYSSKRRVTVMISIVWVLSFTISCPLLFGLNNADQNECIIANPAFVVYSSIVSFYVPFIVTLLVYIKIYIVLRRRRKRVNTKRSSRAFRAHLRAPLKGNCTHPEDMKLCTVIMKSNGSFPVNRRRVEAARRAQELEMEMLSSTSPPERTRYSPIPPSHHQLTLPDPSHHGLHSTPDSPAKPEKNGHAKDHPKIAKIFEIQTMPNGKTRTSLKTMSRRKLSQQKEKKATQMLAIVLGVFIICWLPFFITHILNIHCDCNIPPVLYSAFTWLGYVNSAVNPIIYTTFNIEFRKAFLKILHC

SMILES: Cn1c(N)nnc1SCCCN1CCN(c2cc(C(F)(F)F)nc(C(C)(C)C)n2)CC1 [B]
- Ki [1]: 119 nM
- Ki [2]: 3.9 nM
- Selectivity [Ki(D2)/Ki(D3)] [2]: 31

SMILES: Cn1c(N)nnc1SCCCN1CCN(c2cc(C(C)(C)C)nc(C(C)(C)C)n2)CC1 [A]
- Ki [1]: 12 nM
- Ki [2]: 0.7 nM
- Selectivity [Ki(D2)/Ki(D3)] [2]: 19

SMILES: Cl.Cn1cnnc1SCCCN1CCN(c2cc(C(F)(F)F)nc(C(C)(C)C)n2)CC1 [Example 6, 2-tert-Butyl-4-{4-[3-(4-methyl-4H-[1,2,4]triazol-3-ylsulfanyl)-propyl]-piperazin-1-yl}-6-trifluoromethyl-pyrimidine hydrochloride]
- melting point: 92 to 95 °C
